Test results from ChEMBL document CHEMBL1201862, “PubChem BioAssay data set” (2004).
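A five-concentration, 48-hour dose response in 96-well plates underlies each endpoint, interpolated linearly between surrounding concentrations. Here, GI50 denotes the concentration required for 50% inhibition of growth.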 Calls of active or inactive are those of the source. Rule as the data show it: active = GI50 up to about 1.1 µM and inactive = higher.

Legend:
Assay in all cases: NCI-60 cell line screen, 48 h
K562 = test system: K562
KM12 = test system: KM12
SK-OV-3 = test system: SK-OV-3
Hs-578T = test system: Hs-578T
CCRF-CEM = test system: CCRF-CEM
COLO 205 = test system: COLO 205
RXF 393 = test system: RXF 393
ACHN = test system: ACHN
A549 = test system: A549
OVCAR-4 = test system: OVCAR-4
T47D = test system: T47D
BT-549 = test system: BT-549
IGROV-1 = test system: IGROV-1
SK-MEL-5 = test system: SK-MEL-5
SK-MEL-2 = test system: SK-MEL-2
HCT-15 = test system: HCT-15
EKVX = test system: EKVX
SNB-19 = test system: SNB-19
NCI/ADR-RES = test system: NCI/ADR-RES

CC(=O)NC1C(O)C(O)C(CO)OC1n1nc(SCc2ccccc2)c(=O)[nH]c1=O (stereo not drawn)
GI50 (K562): > 100 µM (inactive) | GI50 (KM12): > 100 µM (inactive) | GI50 (SK-OV-3): > 100 µM (inactive) | GI50 (Hs-578T): > 100 µM (inactive) | GI50 (CCRF-CEM): > 100 µM (inactive) | GI50 (COLO 205): > 100 µM (inactive) | GI50 (RXF 393): > 100 µM (inactive) | GI50 (ACHN): > 100 µM (inactive) | GI50 (A549): > 100 µM (inactive) | GI50 (OVCAR-4): > 100 µM (inactive) | GI50 (T47D): > 100 µM (inactive) | GI50 (BT-549): > 100 µM (inactive) | GI50 (IGROV-1): > 100 µM (inactive) | GI50 (SK-MEL-5): > 100 µM (inactive) | GI50 (SK-MEL-2): > 100 µM (inactive) | GI50 (HCT-15): > 100 µM | GI50 (EKVX): > 100 µM (inactive) | GI50 (SNB-19): > 100 µM (inactive) | GI50 (NCI/ADR-RES): > 100 µM (inactive)

N/C(=N\c1ccc(Cl)cc1)NS(=O)(=O)c1cc(Cl)c(Oc2ccc([N+](=O)[O-])cc2Cl)c(Cl)c1
GI50 (K562): 18.7 µM (inactive) | GI50 (KM12): 17.8 µM (inactive) | GI50 (SK-OV-3): 17.4 µM (inactive) | GI50 (Hs-578T): > 100 µM (inactive) | GI50 (CCRF-CEM): 19.7 µM (inactive) | GI50 (COLO 205): 16.1 µM (inactive) | GI50 (RXF 393): 15.2 µM (inactive) | GI50 (ACHN): 16 µM (inactive) | GI50 (A549): 17.2 µM (inactive) | GI50 (OVCAR-4): 16 µM (inactive) | GI50 (T47D): 14.8 µM (inactive) | GI50 (BT-549): 17.4 µM (inactive) | GI50 (IGROV-1): 15.8 µM (inactive) | GI50 (SK-MEL-5): 16.6 µM (inactive) | GI50 (SK-MEL-2): 20.5 µM (inactive) | GI50 (HCT-15): 16.9 µM | GI50 (EKVX): 16.9 µM (inactive) | GI50 (SNB-19): 17.6 µM (inactive) | GI50 (NCI/ADR-RES): 17.2 µM (inactive)

CCCCCCNCCCNc1c2cc(OC)ccc2nc2cccc([N+](=O)[O-])c12
GI50 (K562): 0.103 µM (active) | GI50 (KM12): 0.144 µM (active) | GI50 (SK-OV-3): 0.627 µM (active) | GI50 (Hs-578T): 0.299 µM (active) | GI50 (CCRF-CEM): 0.0403 µM (active) | GI50 (COLO 205): 0.139 µM (active) | GI50 (RXF 393): 0.0245 µM (active) | GI50 (ACHN): 0.14 µM (active) | GI50 (A549): 0.0578 µM (active) | GI50 (OVCAR-4): 0.113 µM (active) | GI50 (T47D): 0.109 µM (active) | GI50 (BT-549): 0.809 µM (active) | GI50 (IGROV-1): 0.0119 µM (active) | GI50 (SK-MEL-5): < 0.0385 µM (active) | GI50 (SK-MEL-2): 0.0764 µM (active) | GI50 (HCT-15): 0.198 µM | GI50 (EKVX): 0.0986 µM (active) | GI50 (SNB-19): 0.369 µM (active) | GI50 (NCI/ADR-RES): 0.658 µM (active)

NC1=NC(NCC2(CO)CCC2)=CC(OCC2(CO)CCC2)N1 (stereo not drawn)
GI50 (K562): 44.8 µM (inactive) | GI50 (KM12): > 100 µM (inactive) | GI50 (SK-OV-3): > 100 µM (inactive) | GI50 (Hs-578T): > 100 µM (inactive) | GI50 (CCRF-CEM): > 100 µM (inactive) | GI50 (COLO 205): > 100 µM (inactive) | GI50 (RXF 393): > 100 µM (inactive) | GI50 (A549): > 100 µM (inactive) | GI50 (OVCAR-4): > 100 µM (inactive) | GI50 (T47D): 62.2 µM (inactive) | GI50 (BT-549): > 100 µM (inactive) | GI50 (IGROV-1): > 100 µM (inactive) | GI50 (SK-MEL-5): 79.3 µM (inactive) | GI50 (SK-MEL-2): > 100 µM (inactive) | GI50 (HCT-15): > 100 µM | GI50 (EKVX): > 100 µM (inactive) | GI50 (SNB-19): > 100 µM (inactive) | GI50 (NCI/ADR-RES): > 100 µM (inactive)

CCCCC(=O)OC[n+]1ccc(-c2c(COC(=O)NC(C)C)c(COC(=O)NC(C)C)c3n2CCC3)cc1
GI50 (K562): > 90.8 µM (inactive) | GI50 (KM12): > 100 µM (inactive) | GI50 (SK-OV-3): > 100 µM (inactive) | GI50 (Hs-578T): > 100 µM (inactive) | GI50 (CCRF-CEM): 33.7 µM (inactive) | GI50 (COLO 205): > 80.9 µM (inactive) | GI50 (RXF 393): 64 µM (inactive) | GI50 (ACHN): 34.6 µM (inactive) | GI50 (A549): > 100 µM (inactive) | GI50 (OVCAR-4): > 100 µM (inactive) | GI50 (T47D): > 100 µM (inactive) | GI50 (BT-549): > 100 µM (inactive) | GI50 (IGROV-1): > 100 µM (inactive) | GI50 (SK-MEL-5): > 100 µM (inactive) | GI50 (SK-MEL-2): > 100 µM (inactive) | GI50 (HCT-15): > 100 µM | GI50 (EKVX): > 100 µM (inactive) | GI50 (SNB-19): > 100 µM (inactive) | GI50 (NCI/ADR-RES): > 100 µM (inactive)

O=C1/C(=C\c2cccc(Oc3ccccc3)c2)SC(c2ccccc2)N1c1ccccc1 (stereo not drawn)
GI50 (K562): 23.3 µM (inactive) | GI50 (KM12): 46.9 µM (inactive) | GI50 (SK-OV-3): > 100 µM (inactive) | GI50 (Hs-578T): > 100 µM (inactive) | GI50 (CCRF-CEM): 22 µM (inactive) | GI50 (COLO 205): > 100 µM (inactive) | GI50 (RXF 393): 69.5 µM (inactive) | GI50 (ACHN): > 100 µM (inactive) | GI50 (A549): > 100 µM (inactive) | GI50 (OVCAR-4): 75.2 µM (inactive) | GI50 (T47D): 52.5 µM (inactive) | GI50 (BT-549): > 100 µM (inactive) | GI50 (SK-MEL-5): 27.1 µM (inactive) | GI50 (SK-MEL-2): > 100 µM (inactive) | GI50 (HCT-15): 77.3 µM | GI50 (EKVX): 57 µM (inactive) | GI50 (SNB-19): 58.1 µM (inactive) | GI50 (NCI/ADR-RES): 75.3 µM (inactive)

N=C1CCCC1C(=S)SCCC(N)=O (stereo not drawn)
GI50 (KM12): > 100 µM (inactive) | GI50 (SK-OV-3): > 100 µM (inactive) | GI50 (Hs-578T): > 100 µM (inactive) | GI50 (CCRF-CEM): > 100 µM (inactive) | GI50 (COLO 205): > 100 µM (inactive) | GI50 (RXF 393): > 100 µM (inactive) | GI50 (ACHN): > 100 µM (inactive) | GI50 (A549): > 100 µM (inactive) | GI50 (OVCAR-4): > 100 µM (inactive) | GI50 (T47D): > 100 µM (inactive) | GI50 (BT-549): > 100 µM (inactive) | GI50 (IGROV-1): > 100 µM (inactive) | GI50 (SK-MEL-5): > 100 µM (inactive) | GI50 (SK-MEL-2): > 100 µM (inactive) | GI50 (HCT-15): > 100 µM | GI50 (EKVX): > 100 µM (inactive) | GI50 (SNB-19): > 100 µM (inactive) | GI50 (NCI/ADR-RES): > 100 µM (inactive)

O=c1c(Cl)c(Cl)c(=O)c2sc3cc(Cl)ccc3[nH]c1=2
GI50 (K562): 15.5 µM (inactive) | GI50 (KM12): > 100 µM (inactive) | GI50 (SK-OV-3): > 100 µM (inactive) | GI50 (Hs-578T): 39 µM (inactive) | GI50 (COLO 205): 90.4 µM (inactive) | GI50 (RXF 393): 66.4 µM (inactive) | GI50 (ACHN): 53.1 µM (inactive) | GI50 (A549): > 100 µM (inactive) | GI50 (OVCAR-4): 5.66 µM (inactive) | GI50 (T47D): 25.9 µM (inactive) | GI50 (BT-549): 2.81 µM (inactive) | GI50 (IGROV-1): 10.5 µM (inactive) | GI50 (SK-MEL-5): 25.1 µM (inactive) | GI50 (SK-MEL-2): > 100 µM (inactive) | GI50 (HCT-15): 42.3 µM | GI50 (EKVX): 14 µM (inactive) | GI50 (SNB-19): 78.9 µM (inactive) | GI50 (NCI/ADR-RES): 5.36 µM (inactive)
